Measurements: patent US20100298420A1, “Compositions and Methods for Intracellular Delivery” (Yissum, Research Development Company of the Hebrew …, priority 2001, published 2010)

Tests used:
Type in all cases: cell-based
[1] = test system: Swiss albino mouse fibroblast cells (3T3); test: CLSM experiment: intracellular delivery of fluorescent probes
Protocol: Subconfluent Swiss albino mouse fibroblast cells (3T3) were grown in Dulbeco's Modified Eagles Medium (DMEM) on coverslips in wells of 3.5 cm in diameter for Confocal Laser Scanning Microscopy (CLSM) and in six-well plastic plates for flow cytometric analysis. The cells were washed twice with phosphate buffered saline (PBS), adjusted to 37° C. in the incubator, and washed again. Two ml of PBS were added to each well and 50 μl of the test solution was added (Compositions I-III, control systems A-B or any compositions containing PC*, RR or D-289 listed above). […] The coverslip were observed under a Sarastro-Phibos1000 CLS microscope equipped with a 488 nm argon ion laser beam and attached to a Universal Zeiss epifluorescence microscopy with an oil immerse Planapo 63×1.4 NA objective lens. Fluorescence emission was detected above 560 nm for RR, at 527 nm for D-289 and […] for calcein.

[2] = test system: Staphylococcus Aureus ATCC-29213; test: Susceptibility testing, zone of inhibition on agar; settings: 37° C., 24 h, in mm
Protocol: (§1) Various concentrations of erythromycin in sterile water (1.25, 7.5, 10, 12.5 μg/ml) The bacterial strains used were:
(§2) Each erythromycin concentration was mixed with Composition I, Composition II and Standard solution with phosphate buffer saline (PBS, Biological Industries, Beit HaEmek Israel 1:1 by volume. 20 μl of Compositions I-II and standards containing various antibiotic concentrations was added to 6 mm wells on Petri plates containing Tryptic Soy Agar (TSA) inoculated with the microorganisms. The preparation was incubated aerobically at 37° C. for 24 h. The zone of inhibition for each sample was measured.

[3] = test system: Staphylococcus Aureus erythromycin resistant (clinical strain); test: Susceptibility testing, zone of inhibition on agar; settings: 37° C., 24 h
Protocol: as §1, §2

[4] = test system: Bacillus Subtilis ATCC-6633; test: Susceptibility testing, zone of inhibition on agar; settings: 37° C., 24 h
Protocol: as §1, §2

[5] = Erythromycin conc. 10 microgram/ml

| Compound | Fluorescence in the nucleus of the cell [1] | Zone of inhibition ([2]; Erythromycin conc. 1.25 microgram/ml) | Zone of inhibition [2, 5] | zone of inhibition at 10 µg/mL [3, 5] [mm] | zone of inhibition at 12.5 µg/mL ([3]; Erythromycin conc. 12.5 microgram/ml) [mm] | zone of inhibition at 1.25 µg/mL ([4]; ATCC6633, Erythromycin conc. 1.25 microgram/ml) [mm] | zone of inhibition at 7.5 µg/mL ([4]; ATCC6633, Erythromycin conc. 7.5 microgram/ml) [mm] |
| --- | --- | --- | --- | --- | --- | --- | --- |
| CCN(CC)c1ccc(C=Cc2cc[n+](C)cc2)cc1.[I-] [Composition D-289, 4-(4-diethylamino)styryl-N-methylpyridinium iodode] | fluorescence was also observed in the nucleus |  |  |  |  |  |  |
| CC[C@H]1OC(=O)[C@H](C)[C@@H](O[C@H]2C[C@@](C)(OC)[C@@H](O)[C@H](C)O2)[C@H](C)[C@@H](O[C@@H]2O[C@H](C)C[C@H](N(C)C)[C@H]2O)[C@](C)(O)C[C@@H](C)C(=O)[C@H](C)[C@@H](O)[C@]1(C)O [Standard, Erythromycin] |  | 0 | 13.67 ± 026 | 0 | 7.67 ± 0.26 | 7.83 ± 0.26 | 13.6 ± 0.38 |
